In patent US8796256B2 (Janssen Pharmaceutica NV, priority 2010, dated 2014):
Where two headings read alike, the source gives them in different places.

What was measured:
[1] = system: Zucker fa/fa male rats; assay: Zucker fa/fa Rat Model Assay; format: in vivo; conditions: po, 120 h, 10 mg/kg orally once a day for 4 days
Source text: Zucker fa/fa is a monogenic model of frank diabetes due to a mutation on the fa gene truncating the leptin receptor and preventing its interaction with its peptide hormone. This mutation results in a hyperphagic phenotype and the rodent develops obesity, hyperlipidemia, fasting hyperglycemia and insulin resistance. Zucker fa/fa male rats were received at four weeks of age and allowed to acclimate for one week. At five weeks of age the animals were single housed in cages in a temperature-controlled room with 12-hour light/dark cycle. The rats were allowed ad libitum access to water and food and throughout the study were maintained on a Purina 5008 diet. Animals were sorted based primarily on fed insulin levels and circulating triglycerides. Animals were dosed orally once a day (10 mg/kg) in the morning for 4 days. The vehicle used was either 20% HPβCD (Hydroxypropyl Beta Cyclodextrin) or 15% Vitamin E/30% PEG-400 (Polyethylene Glycol 400). Fed insulin and triglycerides were measured using blood collected from the tail vein at day 5. Serum plasma samples were prepared by centrifugation in EDTA (Ethylenediaminetetraacetic acid) containing tubes, transferred into 96 well plates and stored at −80° C.

[2] = target: T1, ERR1 (also known as ERR-α or ERR-1) (Homo sapiens, UniProt P11474); assay: TR-FRET assay (disruption of co-activator peptide binding to ERR1 LBD); format: biochemical; conditions: 6 nM 6His-ERR1LBD, 6 nM GST-SRC-2 peptide; average of 3 independent experiments
T1 sequence (P11474 193-421 limits assumed): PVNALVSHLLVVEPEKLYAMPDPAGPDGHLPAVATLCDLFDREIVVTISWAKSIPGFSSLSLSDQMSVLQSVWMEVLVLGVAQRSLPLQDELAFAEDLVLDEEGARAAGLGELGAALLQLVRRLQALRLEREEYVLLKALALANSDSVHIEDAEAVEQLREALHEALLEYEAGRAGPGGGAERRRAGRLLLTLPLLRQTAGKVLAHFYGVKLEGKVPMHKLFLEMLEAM
Summary of the method: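 Homogeneous TR-FRET measuring displacement of GST-hSRC2 co-activator peptide (6 nM) from His-tagged ERR1 LBD (6 nM), detected with α-GST Eu cryptate (30 nM) and α-His-XL665 (7.5 nM). Buffer 25 mM Tris pH 8, 2.5 mM Hepes, 20 mM KCl, 1 mM DTT, 0.05 mg/mL delipidated BSA; equilibration 4-18 h at 25° C. Hyperbolic dose-response fit, mean of 3 experiments.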

[3] = blood from tail vein at day 5, read-out: % Change Fed Insulin Levels
[4] = blood from tail vein at day 5, read-out: % Change Fed Triglyceride Levels

Row | SMILES | change in vivo at 10 mg/kg [1, 3] | change in vivo at 10 mg/kg [1, 4] | EC50 [2]
1 | O=C(O)CN1C(=O)S/C(=C\c2ccc3c(cnn3Cc3ccc(Cl)cc3C(F)(F)F)c2)C1=O [Compound 4, (5Z)-5-{[1-(4-Chloro-2-trifluoromethylbenzyl)-1H-indazol-5-yl]methylidene}-2,4-dioxothiazolidin-3-ylacetic acid] | -50% | -14% | 9 nM
2 | O=C(O)C1CCC(N2C(=O)S/C(=C\c3ccc4c(cnn4Cc4ccc(Cl)cc4C(F)(F)F)c3)C2=O)CC1 (stereo not drawn) [Compound 73, 4-[(5Z)-5-({1-[4-Chloro-2-(trifluoromethyl)benzyl]-1H-indazol-5-yl}methylidene)-2,4-dioxo-1,3-thiazolidin-3-yl]cyclohexanecarboxylic acid] | -30% | -19% | 12 nM
3 | CN1CCC[C@H]1CN1C(=O)S/C(=C\c2ccc3c(cnn3Cc3ccc(Cl)cc3C(F)(F)F)c2)C1=O [Compound 121, (5Z)-5-({1-[4-Chloro-2-(trifluoromethyl)benzyl]-1H-indazol-5-yl}methylidene)-3-{[(2S)-1-methylpyrrolidin-2-yl]methyl}-1,3-thiazolidine-2,4-dione] | -59% | -37% | 5 nM
4 | N=C(N)NOCCN1C(=O)S/C(=C\c2ccc3c(cnn3Cc3ccc(Cl)cc3C(F)(F)F)c2)C1=O [Compound 91, 1-{2-[(5Z)-5-({1-[4-Chloro-2-(trifluoromethyl)benzyl]-1H-indazol-5-yl}methylidene)-2,4-dioxo-1,3-thiazolidin-3-yl]ethoxy}guanidine] | -68% | -60% | 58 nM
5 | NS(=O)(=O)NC(=O)CN1C(=O)S/C(=C\c2ccc3c(cnn3Cc3ccc(Cl)cc3C(F)(F)F)c2)C1=O [Compound 31, 2-[(5Z)-5-({1-[4-Chloro-2-(trifluoromethyl)benzyl]-1H-indazol-5-yl}methylidene)-2,4-dioxo-1,3-thiazolidin-3-yl]-N-sulfamoylacetamide] | -51% | -14% | 19 nM
6 | CS(=O)(=O)NC(=O)CN1C(=O)S/C(=C\c2ccc3c(cnn3Cc3ccc(Cl)cc3C(F)(F)F)c2)C1=O [Compound 126, 2-[(5Z)-5-({1-[4-Chloro-2-(trifluoromethyl)benzyl]-1H-indazol-5-yl}methylidene)-2,4-dioxo-1,3-thiazolidin-3-yl]-N-(methylsulfonyl)acetamide] | -14% | 13% | 18 nM
7 | CS(=O)(=O)CCN1CCC(N2C(=O)S/C(=C\c3ccc4c(cnn4Cc4ccc(Cl)cc4C(F)(F)F)c3)C2=O)CC1 [Compound 149, (5Z)-5-({1-[4-Chloro-2-(trifluoromethyl)benzyl]-1H-indazol-5-yl}methylidene)-3-{1-[2-(methylsulfonyl)ethyl]piperidin-4-yl}-1,3-thiazolidine-2,4-dione] | -35% | 10% | 26 nM
8 | O=C1S/C(=C\c2ccc3c(cnn3Cc3ccc(Cl)cc3C(F)(F)F)c2)C(=O)N1C[C@H]1COCCN1 [Compound 170, (5Z)-5-({1-[4-Chloro-2-(trifluoromethyl)benzyl]-1H-indazol-5-yl}methylidene)-3-[(3S)-morpholin-3-ylmethyl]-1,3-thiazolidine-2,4-dione] | -52% | -61% | 15 nM
9 | CN1CC[C@H](N2C(=O)S/C(=C\c3ccc4c(cnn4Cc4ccc(Cl)cc4C(F)(F)F)c3)C2=O)C1 [Compound 143, (5Z)-5-({1-[4-Chloro-2-(trifluoromethyl)benzyl]-1H-indazol-5-yl}methylidene)-3-[(3S)-1-methylpyrrolidin-3-yl]-1,3-thiazolidine-2,4-dione] | -49% | -29% | 25 nM
10 | CN1CC[C@@H](N2C(=O)S/C(=C\c3ccc4c(cnn4Cc4ccc(Cl)cc4C(F)(F)F)c3)C2=O)[C@H](F)C1 (relative stereo) [Compound 277, (5Z)-5-({1-[4-Chloro-2-(trifluoromethyl)benzyl]-1H-indazol-5-yl}methylidene)-3-(trans-3-fluoro-1-methylpiperidin-4-yl)-1,3-thiazolidine-2,4-dione] | -73% | -57% | 58 nM
11 | O=C1S/C(=C\c2ccc3c(cnn3Cc3ccc(Cl)cc3C(F)(F)F)c2)C(=O)N1O [Compound 288, (5Z)-5-({1-[4-Chloro-2-(trifluoromethyl)benzyl]-1H-indazol-5-yl}methylidene)-3-hydroxy-1,3-thiazolidine-2,4-dione] | -35% | -29% | 16 nM
12 | COc1nn(Cc2ccc(Cl)cc2C(F)(F)F)c2ccc(/C=C3\SC(=O)N(CCN4CCCC4)C3=O)cc12 [Compound 27, (5Z)-5-({1-[4-Chloro-2-(trifluoromethyl)benzyl]-3-methoxy-1H-indazol-5-yl}methylidene)-3-(2-pyrrolidin-1-ylethyl)-1,3-thiazolidine-2,4-dione] | 9% | 0% | 27 nM
13 | COc1ccc(Cn2ncc3cc(/C=C4\SC(=O)N(CC(=O)O)C4=O)ccc32)c(C(F)(F)F)c1 [Compound 19, [(5Z)-5-({1-[4-Methoxy-2-(trifluoromethyl)benzyl]-1H-indazol-5-yl}methylidene)-2,4-dioxo-1,3-thiazolidin-3-yl]acetic acid] | -9% | 21% | 9 nM
14 | COc1ccc(Cn2ncc3cc(/C=C4\SC(=O)N(CCN5CCOCC5)C4=O)ccc32)c(C(F)(F)F)c1 [Compound 8, (5Z)-5-[(1-{[4-(Methyloxy)-2-(trifluoromethyl)phenyl]methyl}-1H-indazol-5-yl)methylidene]-3-(2-morpholin-4-ylethyl)-1,3-thiazolidine-2,4-dione] | -21% | -19% | 8 nM
15 | O=C1S/C(=C\c2ccc3c(cnn3Cc3ccc(Cl)cc3C(F)(F)F)c2)C(=O)N1C1CCN(CCO)CC1 [Compound 148, (5Z)-5-({1-[4-Chloro-2-(trifluoromethyl)benzyl]-1H-indazol-5-yl}methylidene)-3-[1-(2-hydroxyethyl)piperidin-4-yl]-1,3-thiazolidine-2,4-dione] | -77% | -40% | 15 nM
16 | C[C@H](N)CN1C(=O)S/C(=C\c2ccc3c(cnn3Cc3ccc(Cl)cc3C(F)(F)F)c2)C1=O [Compound 155, 3-[(2S)-2-Aminopropyl]-(5Z)-5-({1-[4-chloro-2-(trifluoromethyl)benzyl]-1H-indazol-5-yl}methylidene)-1,3-thiazolidine-2,4-dione] | -60% | -55% | 24 nM
17 | CS(=O)(=O)NN1C(=O)S/C(=C\c2ccc3c(cnn3Cc3ccc(Cl)cc3C(F)(F)F)c2)C1=O [Compound 361, N-[(5Z)-5-({1-[4-Chloro-2-(trifluoromethyl)benzyl]-1H-indazol-5-yl}methylidene)-2,4-dioxo-1,3-thiazolidin-3-yl]methanesulfonamide] | -58% | -43% | 13 nM
18 | O=C1S/C(=C\c2ccc3c(cnn3Cc3ccc(Cl)cc3C(F)(F)F)c2)C(=O)N1C[C@H]1CN2CCC[C@H]2CO1 [Compound 202, (5Z)-5-({1-[4-Chloro-2-(trifluoromethyl)benzyl]-1H-indazol-5-yl}methylidene)-3-[(3R,8aS)-hexahydro-1H-pyrrolo[2,1-c] [1,4]oxazin-3-ylmethyl]-1,3-thiazolidine-2,4-dione] | -3% | -26% | 35 nM
19 | O=C1S/C(=C\c2ccc3c(cnn3Cc3ccc(Cl)cc3C(F)(F)F)c2)C(=O)N1CCN1CCCC1 [Compound 111, (5Z)-5-({1-[4-Chloro-2-(trifluoromethyl)benzyl]-1H-indazol-5-yl}methylidene)-3-(2-pyrrolidin-1-ylethyl)-1,3-thiazolidine-2,4-dione] | -49% | -30% | 17 nM
20 | CN1CC[C@H](N2C(=O)S/C(=C\c3ccc4c(cnn4Cc4ccc(Cl)cc4C(F)(F)F)c3)C2=O)[C@@H](F)C1 [Compound 384, (5Z)-5-({1-[4-Chloro-2-(trifluoromethyl)benzyl]-1H-indazol-5-yl}methylidene)-3-[(3S,4S)-3-fluoro-1-methylpiperidin-4-yl]-1,3-thiazolidine-2,4-dione] | -52% | -51% | 22 nM
